Laboratory results: patent US20060264347A1, “Antimicrobial composition” (priority 2005, published 2006)

How the values were obtained:
S. aureus [1] = assay: Zone of inhibition assay of coated sutures; type: cell-based; details: coated 2-0 polyglactin 910 suture, 37° C. 48 hr
Description: (§1) A series of USP standard size 2-0 uncoated polyglactin 910 sutures were coated with coating compositions containing LAE. LAE stock solution was made in ethanol at the concentration of 10%. The coating solutions were made by dissolving a L(−)lactide/glycolide copolymer containing 65 mole % lactide and 35 mole % glycolide (4.5%) and calcium stearate (4.5%) in ethyl acetate. Then, the LAE stock solution was added to the coating solution at sequential concentrations and mixed thoroughly. The sutures were hand coated by dipping into the coating solution containing antimicrobial composition and then air dried at room temperature for 8 hr. The antimicrobial efficacy was evaluated by zone of inhibition assay, in which the sutures were cut into a 5 cm section and inoculated with about 10^5 cfu/suture in a Petri dish, a portion of 20 ml of TSA tempered at 47° C. was added into the Petri dish. The inoculum was mix thoroughly with the medium and the suture was placed in the middle of the plate. The inoculated plates were incubated at 37° C. for 48 hr and then the zone of inhibition was measured with a digital caliper.
as §1, with “DIMPTS. DIMPTS” for “LAE. LAE”, “DIMPTS” for “LAE”
(§2) A series of USP standard size 2-0 uncoated polyglactin 910 sutures were coated with coating compositions containing the combinations of LAE and DIMPTS. DIMPTS and LAE stock solutions were made in ethanol at concentration of 10%. The coating solutions were made by dissolving a L(−)lactide/glycolide copolymer containing 65 mole % lactide and 35 mole % glycolide (4.5%) and calcium stearate (4.5%) in ethyl acetate. Then, the DIMPTS and LAE stock solutions were added to the coating solution at sequential concentrations and mixed thoroughly. The sutures were hand coated by dipping into the coating solution containing antimicrobial composition and then air dried at room temperature for 8 hr. The antimicrobial efficacy and synergistic effect were evaluated by zone of inhibition assay, in which the sutures were cut into a 5 cm section and inoculated with about 10^5 cfu/suture in a Petri dish, a portion of 20 ml of TSA tempered at 47° C. was added into the Petri dish. The inoculum was mix thoroughly with the medium and the suture was placed in the middle of the plate. The inoculated plates were incubated at 37° C. for 48 hr and then the zone of inhibition was measured with a digital caliper.

E. coli [2] = assay: Zone of inhibition assay of coated sutures; type: cell-based; details: coated 2-0 polyglactin 910 suture, 37° C. 48 hr
Description: as §1
(§3) A series of USP standard size 2-0 uncoated polyglactin 910 sutures were coated with coating compositions containing DIMPTS. DIMPTS stock solution was made in ethanol at the concentration of 10%. The coating solutions were made by dissolving a L(−)lactide/glycolide copolymer containing 65 mole % lactide and 35 mole % glycolide (4.5%) and calcium stearate (4.5%) in ethyl acetate. Then, the DIMPTS stock solution was added to the coating solution at sequential concentrations and mixed thoroughly. The sutures were hand coated by dipping into the coating solution containing antimicrobial composition and then air dried at room temperature for 8 hr. The antimicrobial efficacy was evaluated by zone of inhibition assay, in which the sutures were cut into a 5 cm section and inoculated with about 10^5 cfu/suture in a Petri dish, a portion of 20 ml of TSA tempered at 47° C. was added into the Petri dish. The inoculum was mix thoroughly with the medium and the suture was placed in the middle of the plate. The inoculated plates were incubated at 37° C. for 48 hr and then the zone of inhibition was measured with a digital caliper.
as §2

C. albicans = assay: Zone of inhibition assay of coated sutures; type: cell-based; details: coated 2-0 polyglactin 910 suture, 37° C. 48 hr
Description: as §1, §3

P. aeruginosa = assay: In vitro antimicrobial efficacy, viable plate count after 24 hr culture; type: cell-based; details: 37° C. 24 hr, inoculum 10^6 CFU/ml
Description: (§4) The synergistic antimicrobial efficacy of the LAE and diiodomethyl-p-tolylsulfone ([…]) antimicrobial composition is illustrated by the results shown in Tables 1 and 2, and was determined by the following protocol. […] Sequential dilutions of the above two stock solutions were then prepared in sterile saline. […] Controls contained similar amounts of saline in the test culture with no LAE or […]. The test cultures were incubated at 37° C. for 24 hr, the total viable bacteria were numerated by plate count on Trypticase® soy agar (BBL) containing inactivating agent. The plates were incubated at 37° C. for 48 hr and reported as colony forming unit/ml (CFU/ml).

E. faecium = assay: as above; type: cell-based; details: 37° C. 24 hr, inoculum 10^6 CFU/ml
Description: as §4

S. aureus [3] = assay: as above; type: cell-based; details: 37° C. 24 hr, inoculum 10^6 CFU/ml
Description: as §4

E. coli [4] = assay: as above; type: cell-based; details: 37° C. 24 hr, inoculum 10^6 CFU/ml
Description: as §4

C. albican = assay: as above; type: cell-based; details: 37° C. 24 hr, inoculum 10^6 CFU/ml
Description: as §4

[5] = animals and humans; cited from earlier work
[6] = rats; cited from earlier work

Which “Zone of inhibition (mm)” value (S. aureus [1]; 0.1% in coating solution) does the source give for `Cc1ccc(S(=O)(=O)C(I)I)cc1` [DIMPTS, diiodomethyl-p-tolylsulfone] here?
Its value is 0 mm.

And the “Zone of inhibition (mm)” value (S. aureus [1]; 0.5% in coating solution)?
The value was 3.0 mm.

What about the “Zone of inhibition (mm)” value (S. aureus [1]; 1% in coating solution) of the same molecule?
Its value is 4.3 mm.

And the “Zone of inhibition (mm)” value (E. coli [2]; 0.1% in coating solution)?
The value was 0 mm.

And the “Zone of inhibition (mm)” value (E. coli [2]; 0.5% in coating solution)?
The value was 0 mm.

And the “Zone of inhibition (mm)” value (E. coli [2]; 1% in coating solution)?
The value was 1.0 mm.

And the “Zone of inhibition (mm)” value (C. albicans; 0.1% in coating solution)?
Its value is 3.3 mm.

What about the “Zone of inhibition (mm)” value (C. albicans; 0.5% in coating solution) of the same molecule?
The value was 3.6 mm.

And the “Zone of inhibition (mm)” value (C. albicans; 1% in coating solution)?
Its value is 8.4 mm.

What about the CFU/ml (P. aeruginosa; 10 ppm) of the same molecule?
Its CFU/ml is 1.0 × 10^9 CFU/ml.

What about the CFU/ml (P. aeruginosa; 200 ppm) of the same molecule?
Its CFU/ml is 4 × 10^8 CFU/ml.

What about the CFU/ml (E. faecium; 0.5 ppm) of the same molecule?
The CFU/ml was 6 × 10^8 CFU/ml.

And the CFU/ml (E. faecium; 5 ppm)?
The CFU/ml was 3 × 10^8 CFU/ml.

What about the CFU/ml (S. aureus [3]; 0.5 ppm) of the same molecule?
The CFU/ml was 1.2 × 10^9 CFU/ml.

What about the CFU/ml (S. aureus [3]; 5 ppm) of the same molecule?
The CFU/ml was 2.4 × 10^6 CFU/ml.

What about the CFU/ml (E. coli [4]; 10 ppm) of the same molecule?
Its CFU/ml is 1.4 × 10^9 CFU/ml.

And the CFU/ml (E. coli [4]; 200 ppm)?
The CFU/ml was 1.1 × 10^5 CFU/ml.

And the CFU/ml (C. albican; 0.5 ppm)?
Its CFU/ml is 1 × 10^8 CFU/ml.

Which “Zone of inhibition (mm)” value (S. aureus [1]; 0.5% in coating solution) does the source give for `CCCCCCCCCCCC(=O)N[C@@H](CCCN=C(N)N)C(=O)OCC.Cl` [LAE, ethyl ester of the lauramide of the arginine monohydrochloride] here?
The value was 0 mm.

What about the “Zone of inhibition (mm)” value (S. aureus [1]; 1% in coating solution) of the same molecule?
Its value is 1.5 mm.

What about the “Zone of inhibition (mm)” value (S. aureus [1]; 2% in coating solution) of the same molecule?
Its value is 3.2 mm.

And the “Zone of inhibition (mm)” value (E. coli [2]; 0.5% in coating solution)?
Its value is 0 mm.

What about the “Zone of inhibition (mm)” value (E. coli [2]; 1% in coating solution) of the same molecule?
The value was 1.0 mm.

And the “Zone of inhibition (mm)” value (E. coli [2]; 2% in coating solution)?
The value was 2.0 mm.

What about the toxicity [5] of the same molecule?
Its toxicity is “completely harmless”.

What about the “Zone of inhibition (mm)” value (C. albicans; 0.5% in coating solution) of the same molecule?
Its value is 0 mm.

And the “Zone of inhibition (mm)” value (C. albicans; 1% in coating solution)?
Its value is 2.3 mm.

What about the “Zone of inhibition (mm)” value (C. albicans; 2% in coating solution) of the same molecule?
Its value is 3.5 mm.

What about the CFU/ml (P. aeruginosa; 10 ppm) of the same molecule?
The CFU/ml was 1.2 × 10^9 CFU/ml.

What about the CFU/ml (E. faecium; 10 ppm) of the same molecule?
Its CFU/ml is 5 × 10^7 CFU/ml.

And the CFU/ml (S. aureus [3]; 10 ppm)?
The CFU/ml was 1.1 × 10^9 CFU/ml.

And the CFU/ml (E. coli [4]; 10 ppm)?
Its CFU/ml is 1.1 × 10^9 CFU/ml.

And the CFU/ml (C. albican; 10 ppm)?
The CFU/ml was 6 × 10^7 CFU/ml.

And the absorption and metabolism [6]?
Its absorption and metabolism is “fast absorption and metabolism into naturally-occurring amino acids and the lauric acid”.
